Patent US11433021B2, “Palonosetron for the treatment or prevention of nausea and vomiting” (ORION CORPORATION, priority 2018, dated 2022)

Assays:
[1] = system: cisplatin-induced nausea and vomiting; test: Efficacy of palonosetron eye drops in cisplatin-induced nausea and vomiting model; type: in vivo, Beagle dogs; details: n=6; for vomiting episodes: T0-T420 min
Experimental: Experiment 3. Efficacy of Palonosetron Eye Drops in Cisplatin-Induced Nausea and Vomiting Model Methods: Six non-naive adult male Beagle dogs were intravenously administered (2 ml/min) cisplatin at 18 mg/m^2 body surface over 20 min. Then, 45 min after the end of the infusion, the dogs received eye drops prepared according to Formulation Example 1 at 30 or 120 μg/kg of palonosetron or its vehicle (0.9% saline, 2% povidone) in a cross-over design. Then, the following parameters were recorded by blinded observers over 15 min periods from TO (end of the infusion of cisplatin) to 420 min (T420) after the end of the infusion of cisplatin: vomiting episodes and nausea-like behaviours including salivation, exaggerated swallowing motions, lip licking, lethargy, restlessness, and turning behaviour signalling that vomiting is imminent. In addition, a visual analogue scale (VAS) from 0 to 100 mm was used to assess the severity of the dogs' nausea-like behaviours (where a score of 0 mm=no nausea and a score of 100 mm=worst possible nausea).

[2] = Bioavailability of palonosetron as ocular drops vs. intravenous administration; type: in vivo, Beagle dogs
Experimental: Experiment 1. Bioavailability of Palonosetron as Ocular Drops Vs. Intravenous Administration
Bioavailability of palonosetron as ocular drops at the dose of 30 μg/kg was compared to 10 μg/kg intravenous (i.v.) palonosetron in Beagle dogs (n=6). The study was a crossover study with 7 days washout period between the treatment periods. The animals were fasted overnight before dosing by withdrawing the remaining feed (if any) at least 12 h before dosing. On dosing days food was offered approximately at 4 h after dosing (after the 4 h blood sampling).
Palonosetron 30 μg/kg eye drops prepared according to Formulation Example 1 were administered in the eye using a micropipette in an amount of 10 μl/kg (approximately half volume in each eye).
Palonosetron 10 μg/kg intravenous dose was administered in cephalic vein in slow i.v. bolus dosed within 30 seconds.
Blood samples were collected into K2EDTA tubes over a 48 h period after each treatment at the following time points: predose, 5 min, 10 min, 20 min, 30 min, 45 min, 1 h, 1.5 h, 2 h, 4 h, 6 h, 8 h, 12 h, 24 h and 48 h post administration. Aliquots of plasma were prepared and stored frozen until analysis. Palonosetron concentration in plasma was determined using Liquid chromatography-triple quadrupole mass spectrometry. The lower limit of quantification for palonosetron in dog plasma was 0.02 ng/ml.

[3] = 30 μg/kg ocular drops (Formulation Example 1), Beagle dogs

elimination phase [2, 3]: extended elimination phase | systemic exposure [2, 3]: good systemic exposure | bioavailability ([2]; dog, other: ocular drops (administered in the eye), 30 μg/kg ocular drops (Formulation Example 1) vs. 10 μg/kg i.v., Beagle dogs (n=6), plasma): 65.6%
Compound: O=C1c2cccc3c2[C@H](CCC3)CN1[C@@H]1CN2CCC1CC2 [Palonosetron]
vomiting episodes ([1]; 30 μg/kg eye drops (Formulation Example 1) 45 min after cisplatin 18 mg/m^2 i.v.): 1 vomiting episode in 2 dogs overall | VAS AUC (nausea) ([1]; 30 μg/kg eye drops (Formulation Example 1) after cisplatin 18 mg/m^2, mean±SEM): 320±268 mm*m | vomiting episodes ([1]; 120 μg/kg eye drops (Formulation Example 1) 45 min after cisplatin 18 mg/m^2 i.v.): inhibited vomiting totally | VAS AUC (nausea) ([1]; 120 μg/kg eye drops (Formulation Example 1) after cisplatin 18 mg/m^2, mean±SEM): 0±0 mm*m | absorption [2, 3]: fast absorption comparable to intravenous administration | eye irritation [2, 3]: No significant eye irritation was seen
